Measured values from patent US6737383B1, “Herbicidal oxadiazolidines” (priority 1999, dated 2004).

What was measured:
blackgrass = experiment: Test B pre/postemergence blackgrass; type: in vivo, Alopecurus myosuroides
Summary of the method: (§1)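 Response is a visual 0-to-10 score relative to untreated plants, where 0 means no effect and 10 means complete control, taken twelve to sixteen days after application. Treatments went onto soil at planting and onto foliage of 1- to 4-leaf plants, using a surfactant-containing non-phytotoxic solvent.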

surinam grass = experiment: Test B pre/postemergence surinam grass; type: in vivo, Brachiaria decumbens
Summary of the method: as §1

cocklebur = experiment: Test B pre/postemergence cocklebur; type: in vivo, Xanthium strumarium
Summary of the method: as §1

corn = experiment: Test B pre/postemergence corn; type: in vivo, Zea mays
Summary of the method: as §1

crabgrass = experiment: Test B pre/postemergence crabgrass; type: in vivo, Digitaria sanguinalis
Summary of the method: as §1

giant foxtail = experiment: Test B pre/postemergence giant foxtail; type: in vivo, Setaria faberii
Summary of the method: as §1

pigweed = experiment: Test B pre/postemergence pigweed; type: in vivo, Amaranthus retroflexus
Summary of the method: as §1

rape = experiment: Test B pre/postemergence rape; type: in vivo, Brassica napus
Summary of the method: as §1

soybean = experiment: Test B pre/postemergence soybean; type: in vivo, Glycine max
Summary of the method: as §1

sugar beet = experiment: Test B pre/postemergence sugar beet; type: in vivo, Beta vulgaris
Summary of the method: as §1

wheat = experiment: Test B pre/postemergence wheat; type: in vivo, Triticum aestivum
Summary of the method: as §1

purple nutsedge = experiment: Test B pre/postemergence purple nutsedge; type: in vivo, Cyperus rotundus; details: Postemergence
Summary of the method: as §1

rice = experiment: Test B flood test rice; type: in vivo, Oryza sativa
Summary of the method: (§2)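 Each value is a visual injury score relative to controls, with 10 meaning complete control and 0 no effect. Evaluation took place twelve to sixteen days after the 2-leaf-stage plants were treated and kept in the greenhouse.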

smallflower flatsedge = experiment: Test B flood test smallflower flatsedge; type: in vivo, Cyperus difformis
Summary of the method: as §2

duck salad = experiment: Test B flood test duck salad; type: in vivo, Heteranthera limosa
Summary of the method: as §2

bamyardgrass = experiment: Test B flood test barnyardgrass; type: in vivo, Echinochloa crus-galli
Summary of the method: as §2

[1] = Preemergence, Rate 62 g/ha, scale of 0 to 10 where 0 is no effect and 10 is complete control
[2] = Preemergence, Rate 250 g/ha, scale of 0 to 10 where 0 is no effect and 10 is complete control
[3] = Preemergence, Rate 500 g/ha, scale of 0 to 10 where 0 is no effect and 10 is complete control
[4] = Rate 62 g/ha, Postemergence, scale of 0 to 10 where 0 is no effect and 10 is complete control
[5] = Rate 125 g/ha, Postemergence, scale 0 to 10
[6] = Rate 125 g/ha, Preemergence, scale of 0 to 10 where 0 is no effect and 10 is complete control
[7] = Rate 500 g/ha, Postemergence, scale 0 to 10
[8] = Rate 62 g/ha, headed Pre-emergence (flood test species), scale 0 to 10 (0 no effect, 10 complete control)
[9] = Rate 125 g/ha, Pre-emergence, flood test species, scale 0 to 10 where 0 is no effect and 10 is complete control
[10] = Rate 250 g/ha, Pre-emergence, flood-test species, scale 0 to 10, 0 is no effect, 10 is complete control
[11] = Rate 500 g/ha, Pre-emergence, flood test species, scale 0 to 10 (0 no effect, 10 complete control)

`CC(=O)OCCCCn1c(=O)on(C(=O)N(c2ccc(F)cc2)C(C)C)c1=O` [Compound 211] was tested, and the “Blackgrass plant response rating” value (blackgrass; [1]) was 6, the “Blackgrass plant response rating” value (blackgrass; [2]) was 9 and the “Plant response rating, Blackgrass” value (blackgrass; [3]) was 9. For the same compound, the “Blackgrass plant response rating” value (blackgrass; [4]) was 2, the “Blackgrass plant response rating” value (blackgrass; [5]) was 3 and the “Blackgrass plant response rating” value (blackgrass; [6]) was 9. The “Plant response rating (0 to 10; 0 is no effect, 10 is complete control), Blackgrass” value (blackgrass; Rate 250 g/ha, Postemergence) was 4, the “Blackgrass plant response rating” value (blackgrass; [7]) was 4 and the “B. signalgrass plant response rating” value (surinam grass; [1]) was 0. The “B. signalgrass plant response rating” value (surinam grass; Preemergence, Rate 250 g/ha, scale 0 to 10, 0 is no effect, 10 is complete control) was 0, the “Plant response rating, B. signalgrass” value (surinam grass; [3]) was 5 and the “B. signalgrass plant response rating” value (surinam grass; [4]) was 0. The “B. signalgrass plant response rating” value (surinam grass; Rate 125 g/ha, Postemergence, scale 0 (no effect) to 10 (complete control)) was 0, the “B. signalgrass plant response rating” value (surinam grass; [6]) was 0 and the “Plant response rating (0 to 10; 0 is no effect, 10 is complete control), B. signalgrass” value (surinam grass; Rate 250 g/ha, Postemergence) was 0. For the same compound, the “B. signalgrass plant response rating” value (surinam grass; Rate 500 g/ha, Postemergence, scale 0 to 10, 0 no effect, 10 complete control) was 0, the “Cocklebur plant response rating” value (cocklebur; [1]) was 0 and the “Cocklebur plant response rating” value (cocklebur; [2]) was 0. For the same compound, the “Plant response rating, Cocklebur” value (cocklebur; [3]) was 0, the “Cocklebur plant response rating” value (cocklebur; [4]) was 0 and the “Cocklebur plant response rating” value (cocklebur; [5]) was 0. For the same compound, the “Cocklebur plant response rating” value (cocklebur; [6]) was 0, the “Plant response rating (0 to 10; 0 is no effect, 10 is complete control), Cocklebur” value (cocklebur; Rate 250 g/ha, Postemergence) was 0 and the “Cocklebur plant response rating” value (cocklebur; [7]) was 0. The “Corn plant response rating” value (corn; [1]) was 0, the “Corn plant response rating” value (corn; [2]) was 0 and the “Plant response rating, Corn” value (corn; [3]) was 0. For the same compound, the “Corn plant response rating” value (corn; [4]) was 0, the “Corn plant response rating” value (corn; [5]) was 0 and the “Corn plant response rating” value (corn; [6]) was 0. The “Plant response rating (0 to 10; 0 is no effect, 10 is complete control), Corn” value (corn; Rate 250 g/ha, Postemergence) was 0, the “Corn plant response rating” value (corn; [7]) was 0 and the “Crabgrass plant response rating” value (crabgrass; [1]) was 0. For the same compound, the “Crabgrass plant response rating” value (crabgrass; [2]) was 3, the “Plant response rating, Crabgrass” value (crabgrass; [3]) was 3 and the “Crabgrass plant response rating” value (crabgrass; [4]) was 0. The “Crabgrass plant response rating” value (crabgrass; [5]) was 0, the “Crabgrass plant response rating” value (crabgrass; [6]) was 0 and the “Plant response rating (0 to 10; 0 is no effect, 10 is complete control), Crabgrass” value (crabgrass; Rate 250 g/ha, Postemergence) was 1. The “Crabgrass plant response rating” value (crabgrass; [7]) was 3, the “Giant foxtail plant response rating” value (giant foxtail; [1]) was 3 and the “Giant foxtail plant response rating” value (giant foxtail; [2]) was 7. For the same compound, the “Plant response rating, Giant foxtail” value (giant foxtail; [3]) was 8, the “Giant foxtail plant response rating” value (giant foxtail; [4]) was 0 and the “Giant foxtail plant response rating” value (giant foxtail; [5]) was 0. The “Giant foxtail plant response rating” value (giant foxtail; [6]) was 4, the “Plant response rating (0 to 10; 0 is no effect, 10 is complete control), Giant foxtail” value (giant foxtail; Rate 250 g/ha, Postemergence) was 2 and the “Giant foxtail plant response rating” value (giant foxtail; [7]) was 3. The “Redroot pigweed plant response rating” value (pigweed; [1]) was 0, the “Redroot pigweed plant response rating” value (pigweed; [2]) was 3 and the “Plant response rating, Redroot pigweed” value (pigweed; [3]) was 7. For the same compound, the “Redroot pigweed plant response rating” value (pigweed; [4]) was 2, the “Redroot pigweed plant response rating” value (pigweed; [5]) was 4 and the “Redroot pigweed plant response rating” value (pigweed; [6]) was 0. The “Plant response rating (0 to 10; 0 is no effect, 10 is complete control), Redroot pigweed” value (pigweed; Rate 250 g/ha, Postemergence) was 4, the “Redroot pigweed plant response rating” value (pigweed; [7]) was 5 and the “Rape plant response rating” value (rape; [1]) was 0. The “Rape plant response rating” value (rape; [2]) was 0, the “Plant response rating, Rape” value (rape; [3]) was 4 and the “Rape plant response rating” value (rape; [4]) was 2. For the same compound, the “Rape plant response rating” value (rape; [5]) was 2, the “Rape plant response rating” value (rape; [6]) was 0 and the “Plant response rating (0 to 10; 0 is no effect, 10 is complete control), Rape” value (rape; Rate 250 g/ha, Postemergence) was 2. The “Rape plant response rating” value (rape; [7]) was 3, the “Soybean plant response rating” value (soybean; [1]) was 0 and the “Soybean plant response rating” value (soybean; [2]) was 0. For the same compound, the “Plant response rating, Soybean” value (soybean; [3]) was 0, the “Soybean plant response rating” value (soybean; [4]) was 3 and the “Soybean plant response rating” value (soybean; [5]) was 4. For the same compound, the “Soybean plant response rating” value (soybean; [6]) was 0, the “Plant response rating (0 to 10; 0 is no effect, 10 is complete control), Soybean” value (soybean; Rate 250 g/ha, Postemergence) was 4 and the “Soybean plant response rating” value (soybean; [7]) was 4. The “Sugarbeets plant response rating” value (sugar beet; [1]) was 0, the “Sugarbeets plant response rating” value (sugar beet; [2]) was 0 and the “Plant response rating, Sugarbeets” value (sugar beet; [3]) was 8. The “Sugarbeets plant response rating” value (sugar beet; [4]) was 0, the “Sugarbeets plant response rating” value (sugar beet; [5]) was 2 and the “Sugarbeets plant response rating” value (sugar beet; [6]) was 0. For the same compound, the “Plant response rating (0 to 10; 0 is no effect, 10 is complete control), Sugarbeets” value (sugar beet; Rate 250 g/ha, Postemergence) was 2, the “Sugarbeets plant response rating” value (sugar beet; [7]) was 2 and the “Wheat plant response rating” value (wheat; [1]) was 0. For the same compound, the “Wheat plant response rating” value (wheat; [2]) was 0, the “Plant response rating, Wheat” value (wheat; [3]) was 5 and the “Wheat plant response rating” value (wheat; [4]) was 0. The “Wheat plant response rating” value (wheat; [5]) was 0, the “Wheat plant response rating” value (wheat; [6]) was 0 and the “Plant response rating (0 to 10; 0 is no effect, 10 is complete control), Wheat” value (wheat; Rate 250 g/ha, Postemergence) was 0. The “Nutsedge plant response rating” value (purple nutsedge; Rate 62 g/ha, scale of 0 to 10 where 0 is no effect and 10 is complete control) was 0, the “Nutsedge plant response rating” value (purple nutsedge; Rate 125 g/ha, scale 0 to 10) was 0 and the “Plant response rating (0 to 10; 0 is no effect, 10 is complete control), Nutsedge” value (purple nutsedge; Rate 250 g/ha) was 0. The “Nutsedge plant response rating” value (purple nutsedge; Rate 500 g/ha, scale 0 to 10) was 0, the “Rice plant response rating” value (rice; [8]) was 0 and the “Rice plant response rating” value (rice; [9]) was 0. The “Rice plant response rating” value (rice; [10]) was 0, the “Rice plant response rating” value (rice; [11]) was 0 and the “S. Flatsedge plant response rating” value (smallflower flatsedge; [8]) was 0. For the same compound, the “S. Flatsedge plant response rating” value (smallflower flatsedge; [9]) was 0, the “S. Flatsedge plant response rating” value (smallflower flatsedge; [10]) was 0 and the “S. Flatsedge plant response rating” value (smallflower flatsedge; [11]) was 0. For the same compound, the “Ducksalad plant response rating” value (duck salad; [8]) was 0, the “Ducksalad plant response rating” value (duck salad; [9]) was 0 and the “Ducksalad plant response rating” value (duck salad; [10]) was 0. For the same compound, the “Ducksalad plant response rating” value (duck salad; [11]) was 0, the “Barnyardgrass plant response rating” value (bamyardgrass; [8]) was 0 and the “Barnyardgrass plant response rating” value (bamyardgrass; [9]) was 0. The “Barnyardgrass plant response rating” value (bamyardgrass; [10]) was 0 and the “Barnyardgrass plant response rating” value (bamyardgrass; [11]) was 0.
